In patent US11000033B2, “Ketone or oxime compound, and herbicide” (NISSAN CHEMICAL CORPORATION, priority 2014, dated 2021):

How the values were obtained:
Format in all cases: in vivo
beet = assay: Test Example 4: effect on crop by soil treatment (symbol f); conditions: application herbicide amount 320 g/ha
Outline: (§1)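 Diluvial soil (sterilized) in boxes; seeds placed spot-wise alongside weed species; ~1.5 cm covering soil. Greenhouse, 25–30° C.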

Leptochloa chinensis = assay: Test Example 3: herbicidal effect by foliage application, Wagner pot (symbol D); conditions: application herbicide amount 320 g/ha
Outline: (§2)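 Scoring took place 3 weeks after application, using fixed criteria. Plants had been raised from seed for 14 days at 25 to 30 °C in submerged alluvial soil before a diluted emulsion of the test compound was sprayed uniformly on the leaves.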

transplanted rice plant = assay: Test Example 1: effect on crop, application before weed generation in submerged conditions (symbol a); conditions: application herbicide amount 320 g/ha
Outline: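 Rice at 2.5 leaf stage transplanted into submerged soil (4 cm depth) sown with three weed species; herbicide applied before weed emergence.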

[1] = test system: directly sowed rice plant; assay: Test Example 3: effect on crop by foliage application, Wagner pot (symbol b); conditions: application herbicide amount 320 g/ha
Outline: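 Steps: fill a 1/10000-are Wagner pot with alluvial soil; add water and mix to submerge at 0.1–0.5 cm depth; sow rice plus Echinochloa crus-galli var. crus-galli, Leptochloa chinensis and Cyperus difformis; grow in a 25–30 °C greenhouse.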

Scirpus juncoides = assay: Test Example 2: herbicidal activity, application during weed generation in submerged conditions (symbol B); conditions: Table 23; application herbicide amount 320 g/ha; grade 0-5 by criteria of Test Example 1
Outline: (§3)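 Read-out: herbicidal effect on each species rated on a visual scale 3 weeks after treatment. Plants were raised together from seed in flooded alluvial soil (4 cm water) at 25° C. to 30° C. and treated at one to two leaves by water-surface application of diluted emulsion.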

Stellaria media = assay: Test Example 5: herbicidal effect by foliage application, plastic box (symbol P); conditions: 320 g/ha, 3 weeks after application
Outline: (§4)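 Emulsion formulation, diluted with water to the intended rate, was applied uniformly to leaves by small sprayer. Recipients were 14-day greenhouse-grown seedlings (25° C. to 30° C.). Assessment followed at 3 weeks.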

Apera spica-venti [2] = assay: Test Example 4: herbicidal effect by soil treatment (symbol L); conditions: application herbicide amount 320 g/ha
Outline: (§5)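 Seeds were sown in sterilized diluvial soil, covered with about 1.5 cm of soil, and the soil surface was sprayed with a water-diluted emulsion of the compound at a predetermined rate. Plants grew in a greenhouse at 25° C. to 30° C.; effects were scored visually 3 weeks after application.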

[3] = test system: Echinochloa crus-galli var. crus-galli; assay: Test Example 3: herbicidal effect by foliage application, Wagner pot (symbol H); conditions: application herbicide amount 320 g/ha
Outline: as §2

[4] = test system: Echinochloa crus-galli var. crus-galli; assay: Test Example 4: herbicidal effect by soil treatment (symbol H); conditions: application herbicide amount 320 g/ha
Outline: as §5

Monochoria vaginalis = assay: Test Example 2: herbicidal activity, application during weed generation in submerged conditions (symbol C); conditions: Table 23; application herbicide amount 320 g/ha; grade 0-5 by criteria of Test Example 1
Outline: as §3

Apera spica-venti [5] = assay: Test Example 5: herbicidal effect by foliage application, plastic box (symbol L); conditions: 320 g/ha, 3 weeks after application
Outline: as §4

Abutilon theophrasti = assay: Test Example 5: herbicidal effect by foliage application, plastic box (symbol M); conditions: 320 g/ha, 3 weeks after application
Outline: as §4

Cyperus difformis = assay: Test Example 3: herbicidal effect by foliage application, Wagner pot (symbol E); conditions: application herbicide amount 320 g/ha
Outline: as §2

rapeseed = assay: Test Example 4: effect on crop by soil treatment (symbol g); conditions: application herbicide amount 320 g/ha
Outline: as §1

Chenopodium album = assay: Test Example 5: herbicidal effect by foliage application, plastic box (symbol O); conditions: 320 g/ha, 3 weeks after application
Outline: as §4

## CON=C(C)CC1CC(OC(=O)N2CCOCC2)=C(c2c(C)cc(-c3ccc(Cl)cc3)cc2C)C1=O (mixture of isomers) [6-062]
beet
  f: beet, effect on crop grade: 0 (Herbicidal ratio of 5% or lower (almost no effect))
Leptochloa chinensis
  herbicidal effect on D (Leptochloa chinensis), grade 0-5: 5 (Herbicidal ratio of 90% or more (almost completely withered))
Transplanted rice plant
  Effect grade on crop, a: transplanted rice plant: 5 (Herbicidal ratio of 90% or more (almost completely withered))
[1]
  effect on crop b (directly sowed rice plant), grade 0-5: 5 (Herbicidal ratio of 90% or more (almost completely withered))
Scirpus juncoides
  Herbicidal effect grade, B: Scirpus juncoides: 3 (Herbicidal ratio of 40% or higher and lower than 70%)
Stellaria media
  P: Stellaria media, herbicidal effect (criteria of Test Example 1): 3 (Herbicidal ratio of 40% or higher and lower than 70%)
Apera spica-venti [2]
  L: Apera spica-venti, herbicidal effect grade: 5 (Herbicidal ratio of 90% or more (almost completely withered))
[3]
  herbicidal effect on H (Echinochloa crus-galli var. crus-galli), grade 0-5: 5 (Herbicidal ratio of 90% or more (almost completely withered))
[4]
  H: Echinochloa crus-galli var. crus-galli, herbicidal effect grade: 5 (Herbicidal ratio of 90% or more (almost completely withered))
Monochoria vaginalis
  Herbicidal effect grade, C: Monochoria vaginalis: 3 (Herbicidal ratio of 40% or higher and lower than 70%)
Apera spica-venti [5]
  L: Apera spica-venti, herbicidal effect (criteria of Test Example 1): 5 (Herbicidal ratio of 90% or more (almost completely withered))
Abutilon theophrasti
  M: Abutilon theophrasti, herbicidal effect (criteria of Test Example 1): 3 (Herbicidal ratio of 40% or higher and lower than 70%)
Cyperus difformis
  herbicidal effect on E, grade 0-5: 5 (Herbicidal ratio of 90% or more (almost completely withered))
rapeseed
  g: rapeseed, effect on crop grade: 0 (Herbicidal ratio of 5% or lower (almost no effect))

## CON=C(C)CC1CC(OC(=O)C(C)(C)CCl)=C(c2c(C)cc(C)cc2C)C1=O (stereo not shown) [1-016]
beet
  f (beet) effect on crop grade: 0 (Herbicidal ratio of 5% or lower (almost no effect))
Leptochloa chinensis
  herbicidal effect on D (Leptochloa chinensis), grade 0-5: 5 (Herbicidal ratio of 90% or more (almost completely withered))
Transplanted rice plant
  Effect grade on crop, a: transplanted rice plant: 5 (Herbicidal ratio of 90% or more (almost completely withered))
[1]
  effect on crop b (directly sowed rice plant), grade 0-5: 5 (Herbicidal ratio of 90% or more (almost completely withered))
Scirpus juncoides
  Herbicidal effect grade, B: Scirpus juncoides: 4 (Herbicidal ratio of 70% or higher and lower than 90%)
Apera spica-venti [2]
  L (Apera spica-venti) herbicidal effect grade: 5 (Herbicidal ratio of 90% or more (almost completely withered))
[3]
  herbicidal effect on H (Echinochloa crus-galli var. crus-galli), grade 0-5: 5 (Herbicidal ratio of 90% or more (almost completely withered))
Chenopodium album
  O: Chenopodium album, herbicidal effect grade: 2 (Herbicidal ratio of 20% or higher and lower than 40%)
[4]
  H (Echinochloa crus-galli var. crus-galli) herbicidal effect grade: 5 (Herbicidal ratio of 90% or more (almost completely withered))
Monochoria vaginalis
  Herbicidal effect grade, C: Monochoria vaginalis: 3 (Herbicidal ratio of 40% or higher and lower than 70%)
Apera spica-venti [5]
  L: Apera spica-venti, herbicidal effect grade: 5 (Herbicidal ratio of 90% or more (almost completely withered))
Abutilon theophrasti
  M: Abutilon theophrasti, herbicidal effect grade: 4 (Herbicidal ratio of 70% or higher and lower than 90%)
Cyperus difformis
  herbicidal effect on E, grade 0-5: 5 (Herbicidal ratio of 90% or more (almost completely withered))
rapeseed
  g (rapeseed) effect on crop grade: 4 (Herbicidal ratio of 70% or higher and lower than 90%)

## CON=C(C)CC1CC(OC(=O)C(C)(C)Oc2ccccc2)=C(c2c(C)cc(C)cc2C)C1=O (stereo not shown) [1-017]
beet
  f (beet) effect on crop grade: 0 (Herbicidal ratio of 5% or lower (almost no effect))
Leptochloa chinensis
  herbicidal effect on D (Leptochloa chinensis), grade 0-5: 5 (Herbicidal ratio of 90% or more (almost completely withered))
Transplanted rice plant
  Effect grade on crop, a: transplanted rice plant: 5 (Herbicidal ratio of 90% or more (almost completely withered))
[1]
  effect on crop b (directly sowed rice plant), grade 0-5: 5 (Herbicidal ratio of 90% or more (almost completely withered))
Scirpus juncoides
  Herbicidal effect grade, B: Scirpus juncoides: 4 (Herbicidal ratio of 70% or higher and lower than 90%)
Apera spica-venti [2]
  L (Apera spica-venti) herbicidal effect grade: 5 (Herbicidal ratio of 90% or more (almost completely withered))
[3]
  herbicidal effect on H (Echinochloa crus-galli var. crus-galli), grade 0-5: 5 (Herbicidal ratio of 90% or more (almost completely withered))
Chenopodium album
  O: Chenopodium album, herbicidal effect grade: 2 (Herbicidal ratio of 20% or higher and lower than 40%)
[4]
  H (Echinochloa crus-galli var. crus-galli) herbicidal effect grade: 5 (Herbicidal ratio of 90% or more (almost completely withered))
Monochoria vaginalis
  Herbicidal effect grade, C: Monochoria vaginalis: 3 (Herbicidal ratio of 40% or higher and lower than 70%)
Apera spica-venti [5]
  L: Apera spica-venti, herbicidal effect grade: 5 (Herbicidal ratio of 90% or more (almost completely withered))
Abutilon theophrasti
  M: Abutilon theophrasti, herbicidal effect grade: 4 (Herbicidal ratio of 70% or higher and lower than 90%)
Cyperus difformis
  herbicidal effect on E, grade 0-5: 5 (Herbicidal ratio of 90% or more (almost completely withered))
rapeseed
  g (rapeseed) effect on crop grade: 4 (Herbicidal ratio of 70% or higher and lower than 90%)

## C=CCON=C(C)CC1CC(O)=C(c2c(C)cc(C)cc2C)C1=O (stereo not shown) [1-018]
beet
  f (beet) effect on crop grade: 0 (Herbicidal ratio of 5% or lower (almost no effect))
Leptochloa chinensis
  herbicidal effect on D (Leptochloa chinensis), grade 0-5: 5 (Herbicidal ratio of 90% or more (almost completely withered))
Transplanted rice plant
  Effect grade on crop, a: transplanted rice plant: 5 (Herbicidal ratio of 90% or more (almost completely withered))
[1]
  effect on crop b (directly sowed rice plant), grade 0-5: 5 (Herbicidal ratio of 90% or more (almost completely withered))
Scirpus juncoides
  Herbicidal effect grade, B: Scirpus juncoides: 5 (Herbicidal ratio of 90% or more (almost completely withered))
Stellaria media
  P: Stellaria media, herbicidal effect grade: 4 (Herbicidal ratio of 70% or higher and lower than 90%)
Apera spica-venti [2]
  L (Apera spica-venti) herbicidal effect grade: 5 (Herbicidal ratio of 90% or more (almost completely withered))
[3]
  herbicidal effect on H (Echinochloa crus-galli var. crus-galli), grade 0-5: 5 (Herbicidal ratio of 90% or more (almost completely withered))
[4]
  H (Echinochloa crus-galli var. crus-galli) herbicidal effect grade: 5 (Herbicidal ratio of 90% or more (almost completely withered))
Monochoria vaginalis
  Herbicidal effect grade, C: Monochoria vaginalis: 3 (Herbicidal ratio of 40% or higher and lower than 70%)
Apera spica-venti [5]
  L: Apera spica-venti, herbicidal effect grade: 5 (Herbicidal ratio of 90% or more (almost completely withered))
Abutilon theophrasti
  M: Abutilon theophrasti, herbicidal effect grade: 3 (Herbicidal ratio of 40% or higher and lower than 70%)
Cyperus difformis
  herbicidal effect on E, grade 0-5: 3 (Herbicidal ratio of 40% or higher and lower than 70%)
rapeseed
  g (rapeseed) effect on crop grade: 4 (Herbicidal ratio of 70% or higher and lower than 90%)

## C#CCON=C(C)CC1CC(O)=C(c2c(C)cc(C)cc2C)C1=O (stereo not shown) [1-019]
beet
  f (beet) effect on crop grade: 0 (Herbicidal ratio of 5% or lower (almost no effect))
Leptochloa chinensis
  herbicidal effect on D (Leptochloa chinensis), grade 0-5: 5 (Herbicidal ratio of 90% or more (almost completely withered))
Transplanted rice plant
  Effect grade on crop, a: transplanted rice plant: 5 (Herbicidal ratio of 90% or more (almost completely withered))
[1]
  effect on crop b (directly sowed rice plant), grade 0-5: 5 (Herbicidal ratio of 90% or more (almost completely withered))
Scirpus juncoides
  Herbicidal effect grade, B: Scirpus juncoides: 5 (Herbicidal ratio of 90% or more (almost completely withered))
Stellaria media
  P: Stellaria media, herbicidal effect grade: 4 (Herbicidal ratio of 70% or higher and lower than 90%)
Apera spica-venti [2]
  L (Apera spica-venti) herbicidal effect grade: 5 (Herbicidal ratio of 90% or more (almost completely withered))
[3]
  herbicidal effect on H (Echinochloa crus-galli var. crus-galli), grade 0-5: 5 (Herbicidal ratio of 90% or more (almost completely withered))
[4]
  H (Echinochloa crus-galli var. crus-galli) herbicidal effect grade: 5 (Herbicidal ratio of 90% or more (almost completely withered))
Monochoria vaginalis
  Herbicidal effect grade, C: Monochoria vaginalis: 2 (Herbicidal ratio of 20% or higher and lower than 40%)
Apera spica-venti [5]
  L: Apera spica-venti, herbicidal effect grade: 5 (Herbicidal ratio of 90% or more (almost completely withered))
Abutilon theophrasti
  M: Abutilon theophrasti, herbicidal effect grade: 4 (Herbicidal ratio of 70% or higher and lower than 90%)
Cyperus difformis
  herbicidal effect on E, grade 0-5: 5 (Herbicidal ratio of 90% or more (almost completely withered))
rapeseed
  g (rapeseed) effect on crop grade: 4 (Herbicidal ratio of 70% or higher and lower than 90%)
